Assay results as given in ChEMBL document CHEMBL1201861, “Genomics of Drug Sensitity in Cancer screening data, Wellcome Trust Sanger Institute”.

Key:
LXF-289 cell line = assay: cells; assay type: functional, cell-based, Homo sapiens; details: Homo sapiens, LXF-289
Description: SANGER: Inhibition of human LXF-289 cell growth in a cell viability assay.

LCLC-103H cell line = assay: cells; assay type: functional, cell-based, Homo sapiens; details: Homo sapiens, LCLC-103H
Description: SANGER: Inhibition of human LCLC-103H cell growth in a cell viability assay.

HMV-2 cell line = assay: cells; assay type: functional, cell-based, Homo sapiens; details: Homo sapiens, HMV-2;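 further: growth inhibition of HMV-II cells, read out with a cell viability assay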
Description: SANGER: Inhibition of human HMV-II cell growth in a cell viability assay.

KYSE-520 cell line = assay: cells; assay type: functional, cell-based, Homo sapiens; details: Homo sapiens, KYSE-520;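 further: growth inhibition of human KYSE-520 cells, read out with a viability assay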
Description: SANGER: Inhibition of human KYSE-520 cell growth in a cell viability assay.

A253 cell line = assay: cells; assay type: functional, cell-based, Homo sapiens; details: Homo sapiens, A253;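 further: growth inhibition of A253 cells, read out with a cell viability assay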
Description: SANGER: Inhibition of human A253 cell growth in a cell viability assay.

Caov-3 cell line = assay: cells; assay type: functional, cell-based; details: Homo sapiens;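 further: cell growth inhibition read out by a viability assay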
Description: SANGER: Inhibition of human Caov-3 cell growth in a cell viability assay.

KU812 cell line = assay: cells; assay type: functional, cell-based; details: Homo sapiens;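 further: growth inhibition of KU812 cells, read out with a cell viability assay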
Description: SANGER: Inhibition of human KU812 cell growth in a cell viability assay.

KYSE-150 cell line = assay: cells; assay type: functional, cell-based, Homo sapiens; details: Homo sapiens, KYSE-150;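 further: growth inhibition of human KYSE-150 cells, read out with a cell viability assay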
Description: SANGER: Inhibition of human KYSE-150 cell growth in a cell viability assay.

KYSE-70 cell line = assay: cells; assay type: functional, cell-based, Homo sapiens; details: Homo sapiens, KYSE-70;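 further: cell viability assay read-out, with IC50 expressing suppression of KYSE-70 cell growth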
Description: SANGER: Inhibition of human KYSE-70 cell growth in a cell viability assay.

BC1 cell line = assay: SANGER: Inhibition of human BC-1 cell growth in a cell viability assay.; assay type: functional, cell-based

IC50 (LXF-289 cell line): > 2560 nM | IC50 (LCLC-103H cell line): 788 nM | IC50 (HMV-2 cell line): 183 nM | IC50 (KYSE-520 cell line): > 2560 nM | IC50 (A253 cell line): > 2560 nM | IC50 (Caov-3 cell line): > 2560 nM | IC50 (KU812 cell line): > 2560 nM | IC50 (KYSE-150 cell line): 2250 nM | IC50 (KYSE-70 cell line): > 2560 nM
Structure (SMILES): C[C@@]1(C(=O)Nc2ccc(F)nc2)CCCN1c1nc(Nc2cc(C3CC3)n[nH]2)c2cccn2n1 [BMS-754807]
IC50 (BC1 cell line): 587 nM
